Laboratory results from patent US20240279230A1, “CRYSTALLINE FORMS OF A HER2 INHIBITOR” (Boehringer Ingelheim International GmbH, priority 2022, published 2024).
Entries after “also recorded” stand apart in the source; their conditions may differ.

Experiments:
Type in all cases: physicochemical
[1] = Dynamic Vapor Sorption (DVS) sorption isotherms, hygroscopic behaviour; conditions: for Hygroscopicity: DVS classification; for Δm (0-80%), moisture absorbed at 80% RH / Δm (0-90%), maximum water uptake: DVS, 25.0 ±1.0° C.; for Δm (0-90%), maximum water uptake: up to 90% RH; for Hysteresis: between sorption and desorption curves
Experimental: The methodology for this can be as follows. The mass of the solids is monitored as the relative humidity (RH) was deliberately changed. The RH is cycled twice from 0% to 90% to 0% in 10% steps. The temperature during measurement is kept constantly at (25.0 ±1.0° C.) Each step is held until mass stability was achieved. A camera inside the instrument captured an image at the conclusion of each stage, allowing for the observation of any visual changes in the solid form during the analysis.

[2] = Thermogravimetric Analysis (TGA); conditions: 20° C./min
Experimental: The methodology for this can be as follows. Solid compounds (˜5 mg) are placed in an aluminium pan and sealed. The instrument used for the analysis is a TA Instruments TGA 550. The same sample lots from DSC testing are used for TGA testing. Processing is completed using TRIOS software.

[3] = Polymorphic stability of form III and form IV under stress storage, PXRD; conditions: 21 days;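 also: open storage at 90 °C with 3% RH or 78% RH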
Experimental: A Bruker D2 Phaser X-Ray Diffractometer (XRD, EQ-SSRD-XRD-01) can be used for characterizing the samples. Raw results are evaluated using DIFFRAC.EVA (Bruker, V5.0) software. The Kα2 contribution was stripped, and a peak search was performed using peak search parameters (width 0.302 and threshold 1.0).
A test sample (approximately 0.3 g) is representatively subsampled into an agate-type mortar and pestle. Sample is ground for approximately one minute to achieve a fine homogenous powder. Sample is then transferred into a stainless-steel sample holder fitted with a zero-diffraction plate (ZDP). The sample holder is then levelled off with a glass slide to create a flat sample surface level with the sample holder.

[4] = Chemical stability of solid state forms under temperature/humidity stress, related substances by HPLC at 252 nm; design: Impurity I / Impurity A / Impurity B / Impurity C / Impurity D / Impurity E / Impurity F / Impurity G / Impurity H: unit not given here
Source text: To do so, control samples are stored refrigerated in the presence of desiccant for the duration of the study and measured simultaneously with stressed samples by HPLC at a wavelength of 252 nm.

[5] = Control 1, stored refrigerated with desiccant
[6] = Control 2, stored refrigerated with desiccant
[7] = Control 3, stored refrigerated with desiccant

## C=CC(=O)NC1CCN(c2ncc3ncnc(Nc4ccc(Oc5ccc6c(c5)ncn6C)c(C)c4)c3n2)CC1 [Form III, N-{1-[8-({3-methyl-4-[(1-methyl-1H-1,3-benzodiazol-5-yl)oxy]phenyl}amino)-[1,3]diazino[5,4-d]pyrimidin-2-yl]piperidin-4-yl}prop-2-enamide]
[1]; DVS camera images
  Change in visual appearance during the humidity cycles: No change in the visual appearance
[1]
  Hygroscopicity: slightly hygroscopic
  Δm (0-80%), moisture absorbed at 80% RH: 1.2 wt %
  Δm (0-90%), maximum water uptake: 1.7 wt %
  Hysteresis: no
[1]; listed as form III
  Hygroscopicity: slightly hygroscopic
  Δm (0-80%), moisture absorbed at 80% RH: 1.2 wt %
  Δm (0-90%), maximum water uptake: 1.7 wt %
  Hysteresis: lack of hysteresis
[1]; RH cycled twice 0% to 90% to 0%
  Phase change during DVS experiment: no indication of irreversible phase conversion or hydrate formation; also recorded: no irreversible phase changes
[2]; Decomposition
  TGA change in mass: 60.862%
  TGA onset: 420.47 °C
[2]; Small mass loss event
  TGA change in mass: 1.129%
  TGA end: 240.02 °C
  TGA onset: 231.13 °C
[2]; Small mass loss event, listed as form III
  TGA change in mass: around 1%
[3]; open storage 90° C./3% RH
  Polymorphic stability by PXRD: stable and conformed to form III reference standard
[3]; open storage 90° C./3% RH, listed as form III
  Polymorphic stability by PXRD: neither form underwent phase changes
[3]; open storage 90° C./78% RH
  Polymorphic stability by PXRD: stable and conformed to form III reference standard
[3]; open storage 90° C./78% RH, listed as form III
  Polymorphic stability by PXRD: neither form underwent phase changes
[4]; 60-90° C., 3-79% RH, up to 21 days
  Color change after stressing: No color changes
[4]; 60° C./75% RH, 21 days
  Impurity A: 0.067
  Impurity B: 0.012
  Impurity C: 0.023
  Impurity D: 0.134
  Impurity E: 0.057
  Impurity F: 0
  Impurity G: 0.019
  Impurity H: 0.140
  Impurity I: 0.014
[4]; 70° C./62% RH, 21 days
  Impurity A: 0.064
  Impurity B: 0.012
  Impurity C: 0.024
  Impurity D: 0.119
  Impurity E: 0.059
  Impurity F: 0.006
  Impurity G: 0.019
  Impurity H: 0.139
  Impurity I: 0.015
[4]; 75° C./41% RH, 21 days
  Impurity A: 0.066
  Impurity B: 0.011
  Impurity C: 0.025
  Impurity D: 0.118
  Impurity E: 0.062
  Impurity F: 0.009
  Impurity G: 0.019
  Impurity H: 0.136
  Impurity I: 0.010
[4]; 75° C./79% RH, 17 days
  Impurity A: 0.066
  Impurity B: 0.012
  Impurity C: 0.031
  Impurity D: 0.106
  Impurity E: 0.074
  Impurity F: 0
  Impurity G: 0.005
  Impurity H: 0.135
  Impurity I: 0.015
[4]; 80° C./11% RH, 21 days
  Impurity A: 0.066
  Impurity B: 0.011
  Impurity C: 0.025
  Impurity D: 0.123
  Impurity E: 0.054
  Impurity F: 0.007
  Impurity G: 0.024
  Impurity H: 0.141
  Impurity I: 0.015
[4]; 80° C./61% RH, 17 days
  Impurity A: 0.052
  Impurity B: 0.013
  Impurity C: 0.024
  Impurity D: 0.096
  Impurity E: 0.060
  Impurity F: 0.009
  Impurity G: 0.020
  Impurity H: 0.137
  Impurity I: 0.015
[4]; 90° C./3% RH, 21 days
  Impurity A: 0.064
  Impurity B: 0.012
  Impurity C: 0.033
  Impurity D: 0.087
  Impurity E: 0.073
  Impurity F: 0
  Impurity G: 0.007
  Impurity H: 0.140
  Impurity I: 0.016
[4]; 90° C./41% RH, 10 days
  Impurity A: 0.066
  Impurity B: 0.013
  Impurity C: 0.025
  Impurity D: 0.109
  Impurity E: 0.060
  Impurity F: 0
  Impurity G: 0.022
  Impurity H: 0.138
  Impurity I: 0.013
[4]; 90° C./78% RH, 21 days
  Impurity A: 0.065
  Impurity B: 0.011
  Impurity C: 0.023
  Impurity D: 0.112
  Impurity E: 0.057
  Impurity F: 0.006
  Impurity G: 0.021
  Impurity H: 0.133
  Impurity I: 0.014
[4]; [5]
  Impurity A: 0.059
  Impurity B: 0.012
  Impurity C: 0.026
  Impurity D: 0.127
  Impurity E: 0.049
  Impurity F: 0.008
  Impurity G: 0.016
  Impurity H: 0.139
  Impurity I: 0.014
[4]; [6]
  Impurity A: 0.051
  Impurity B: 0.010
  Impurity C: 0.023
  Impurity D: 0.097
  Impurity E: 0.057
  Impurity F: 0.006
  Impurity G: 0.019
  Impurity H: 0.136
  Impurity I: 0.016
[4]; [7]
  Impurity A: 0.069
  Impurity B: 0.010
  Impurity C: 0.024
  Impurity D: 0.143
  Impurity E: 0.051
  Impurity F: 0.007
  Impurity G: 0.019
  Impurity H: 0.139
  Impurity I: 0.016
[4]; accelerated stress conditions, up to 21 days at 90° C./78% RH
  Increase in related substances: no significant increase in any related substance
[4]; up to 21 days at 90° C./78% RH
  Chemical stability in the solid state: chemically very stable
